Laboratory results as given in patent publication US11291666B2, “Uses” (INTRA-CELLULAR THERAPIES, INC., priority 2016, dated 2022).

Experiments:
BV2 cells [1] = assay: LPS-induced TNFα release from BV2 cells (ELISA); type: cell-based, mouse; settings: 50 ng/ml LPS stimulation, FIG. 5
Protocol: TNFα release: TNFα levels are measured in BV2 conditioned media and normalized to cell protein levels. Inhibition of LPS-induced TNFα release from BV2 cells is depicted in FIG. 5.
(§1) The test compound is added first, the LPS is added one hour later, and the cells and/or media are harvested at five hours from commencement of the experiment.
TNFαELISA: Thermo Fisher mouse TNFα colorimetric, sandwich ELISA kit. Interpolatee values from standard curve. Dose response is fit to a 4-parameter logistic curve.

BV2 cells [2] = assay: Quantitative PCR of inflammatory cytokine mRNA in LPS-treated BV2 cells; type: cell-based, mouse
Protocol: Levels of IL1β are measured using quantitative PCR of IL1β mRNA. IL1β is considered a marker of inflammation. Results are depicted in FIG. 2 (RQ: relative quantification of changes in gene expression in treated versus control samples; ***p<0.01 vs control, √p<0.01 vs LPS alone; ANOVA with Newman-Keuls post-hoc test).
BV2 cells are pretreated with compound, ITI-214 or rolipram, a PDE4 inhibitor, then stimulated with 50 ng/ml LPS for 4 hours. Expression levels of TNF, IL1β, Ccl2, and IL6 are measured. Normalized mRNA levels are shown as change from vehicle (ΔΔCt) and compared using a one-way ANOVA. […] The mRNA transcripts for TNF, IL1β, and Ccl2—three of the four cytokines studied in vivo—were elevated in BV2 cells treated with 50 ng/ml LPS.
as §1
(§2) RTqPCR: RNA from BV2 cells purified using RNeasyKit (Qiagen) and from mouse tissue using TRIzol (Ambion). TaqMan primer-probe assays from Thermo Fisher. mRNA levels for all conditions are normalized to GAPDH and to vehicle control (ΔΔCt). Data are analyzed statistically using one-way ANOVA with the Bonferroni post-test for multiple comparisons.

BV2 cells [3] = assay: RNAseq analysis of LPS-stimulated BV2 cells, differentially expressed transcripts; type: cell-based, mouse; settings: for genes affected by both Compound 214 and Rolipram / genes significantly affected by this compound but not the other (Compound 214 / Rolipram) / overlap of genes affected by Compound 214 and Rolipram: LPS-stimulated BV2 cells
Protocol: as §1
RNASeq: Flashfreeze BV2cells, isolate RNA, prepare a library using polyA selection, and conduct 1×50 bp single read sequencing on the Illumina HiSeq 2500 in High Output mode (using V4 chemistry). Genes are mapped to reference genome (GRCm38) using CLC Genomics Server. Number of reads per sample average ˜17 million. Differential gene expression analysis is performed using DESeq2software (Bioconductor.org). Differentially expressed genes (p<0.01, Waldtest) are reported as log 2(fold change).

[4] = test system: inflammatory gene expression in mouse striatum; assay: Inflammatory gene expression in mouse striatum after LPS (Q-PCR); type: in vivo
Protocol: as §2
The results are based upon an evaluation of samples using Q-PCR.
Data from a further experiment measuring the effect of PDE1 inhibition on inflammatory gene expression in mouse striatum is depicted in FIG. 7. […] Striatal tissue is isolated and flash frozen, and RNA is extracted. Measurements from RT-qPCR are shown as log 2 fold change (2ΔΔCt). n=4 *p<0.05, **p<0.01, ***p<0.001, ****p<0.0001.
Data from yet another experiment measuring the effect of PDE1 inhibition on inflammatory gene expression in mouse striatum is depicted in FIG. 8. […] Striatal tissue is analyzed for mRNA levels of TNF, IL1β, Ccl2, and IL6. Expression levels are shown as change in Q-PCR signal from vehicle (ΔΔCt) and compared using an ANOVA. * p<0.05, **p<0.01, ***p<0.001.

[5] = BV2 cells, 50 ng/ml LPS for 4 hours, 10 μM, FIG. 4b
[6] = BV2 cells, Compound 214 at 10 μM, FIG. 4a
[7] = Striatum Mouse + LPS, initial results
[8] = adult mice, 10 mg/kg i.p., 500 μg/kg LPS s.c. for 2 hours, FIG. 8
[9] = mouse striatum, 10 mg/kg i.p., LPS 500 μg/kg s.c., two hours, FIG. 7

CN1C(=O)c2c(nn(Cc3ccc(-c4cccc(F)n4)cc3)c2Nc2ccccc2)N2C1=N[C@@H]1CCC[C@@H]12 [Compound 214]
LPS-induced TNFα release (BV2 cells [1]): dose-dependent inhibition
Chemokine (C-C) motif Ligand 2 expression (Q-PCR) (BV2 cells [2]; BV2 + LPS, initial results): Down
Interleukin 1 beta expression (Q-PCR) (BV2 cells [2]; BV2 + LPS, initial results): Down
Tumor necrosis factor expression (Q-PCR) (BV2 cells [2]; BV2 + LPS, initial results): Down
Ccl2 mRNA signal (BV2 cells [2]; [5]): significantly decreased
IL1β mRNA signal (BV2 cells [2]; [5]): trended downward
TNF mRNA signal (BV2 cells [2]; [5]): significantly decreased
LPS-induced increase in expression of Ccl2 (BV2 cells [2]; [6]): significantly reduces
LPS-induced increase in expression of IL1β (BV2 cells [2]; [6]): significantly reduces
LPS-induced increase in expression of TNFα (BV2 cells [2]; [6]): significantly reduces
LPS-induced changes in proinflammatory markers (BV2 cells [2]; BV2 cells, separate experiment, FIG. 4b, 50 ng/ml LPS for 4 hours): greatly reduces or blunts
mRNA transcripts decreased in the presence of LPS + compound vs. LPS alone (BV2 cells [3]; BV2 cells, RNAseq): 138 transcripts
overlap between the Compound 214 and rolipram sets of decreased transcripts (BV2 cells [3]; BV2 cells, RNAseq): 48 transcripts
overlap between the Compound 214 and rolipram sets of elevated transcripts (BV2 cells [3]; BV2 cells, RNAseq): 45 transcripts
transcripts elevated in the presence of LPS + compound vs. LPS alone (BV2 cells [3]; BV2 cells, RNAseq): 149 transcripts
genes affected by both Compound 214 and Rolipram (BV2 cells [3]; further RNASeq analysis): 114 genes
genes significantly affected by this compound but not the other (Compound 214 / Rolipram) (BV2 cells [3]; further RNASeq analysis): 293 genes
overlap of genes affected by Compound 214 and Rolipram (BV2 cells [3]; further RNASeq analysis): about 17%
genes affected by both Compound 214 and Rolipram (BV2 cells [3]; still a further experiment): 683 genes
genes significantly affected by this compound but not the other (Compound 214 / Rolipram) (BV2 cells [3]; still a further experiment): 1240 genes
overlap of genes affected by Compound 214 and Rolipram (BV2 cells [3]; still a further experiment): about half
Chemokine (C-C) motif Ligand 2 expression (Q-PCR) [4, 7]: Down
Oncostatin M expression (Q-PCR) [4, 7]: Down
expression of Ccl2 mRNA in striatum [4, 8]: attenuates
expression of TNF mRNA in striatum [4, 8]: attenuates
levels of IL1-beta mRNA in striatum [4, 8]: trended to lower levels
levels of IL6 mRNA in striatum [4, 8]: trended to lower levels
LPS stimulation of the pro-inflammatory cytokines TNFα, Ccl2, IL-1β, and IL-6 [4, 9]: inhibits
expression of the anti-inflammatory cytokine IL-10 [4, 9]: significantly enhance
LPS-induced inflammatory gene expression changes in mice ([4]; striatal tissue, 10 mg/kg i.p., 2 hours, FIG. 8): prevents
